The values that follow come from patent US20250064773A1, “TARGETING ERO1 ALPHA WITH AURONE DERIVATIVES” (West Virginia University Board of Governors on behalf of …, priority 2021, published 2025).

The target in the test is T1, ERO1α (Homo sapiens, UniProt Q96HE7).
T1 construct: endogenous in cells; host or cells: PC-9
T1 sequence (Q96HE7 24-468): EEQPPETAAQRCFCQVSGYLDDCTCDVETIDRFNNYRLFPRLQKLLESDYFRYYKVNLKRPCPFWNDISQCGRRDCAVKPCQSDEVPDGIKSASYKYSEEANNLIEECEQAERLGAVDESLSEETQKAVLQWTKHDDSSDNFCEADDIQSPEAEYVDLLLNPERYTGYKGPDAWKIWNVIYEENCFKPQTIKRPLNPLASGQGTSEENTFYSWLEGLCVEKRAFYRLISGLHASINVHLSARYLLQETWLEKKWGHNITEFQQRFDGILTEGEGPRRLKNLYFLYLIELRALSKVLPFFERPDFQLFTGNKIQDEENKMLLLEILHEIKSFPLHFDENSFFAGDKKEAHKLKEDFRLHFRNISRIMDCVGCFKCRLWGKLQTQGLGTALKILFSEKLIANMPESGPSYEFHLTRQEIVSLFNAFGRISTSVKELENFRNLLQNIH
In words: Cellular thermal shift assay (CETSA) in PC-9 cells, ERO1α. The test is classed as cell-based. To be noted: 100 μM, 1 hour at 37° C. The source says:
To date activity of T151742 towards other flavoenzymes has not been identified at this time. We utilized the Cellular Thermal Shift Assay (CETSA) to determine target engagement of T151742 in vitro using the non-small cell lung cancer (NSCLC) cell line PC-9. The EGFR driven PC-9 cell line was chosen as new treatment strategies are needed in EGFR driven NSCLC as most patients relapse and become resistant to current targeted therapies with development of further mutations such as T790M, C797S as well as emergence of EGFR independent tumors^42, 43. […] First, we determined the aggregation temperature (Tagg) of ERO1α, ERO1β, and LSD-1, which are all FAD dependent enzymes and potential in vitro targets of T15742. […]
Upon addition of T151742, Tagg was quantified for ERO1α, ERO1β, and LSD-1. Quantification of the average of n=3 independent experiments based on western blot analysis for ERO1α, ERO1β, and LSD-1. […] Cellular viability was determined by MTT assay. n=3 independent experiments performed in quadruplicates. ****p<0.0001; by two-way ANOVA.
Cell Lines: PC-9 cell line used was obtained from Sigma Aldrich and grown in RPMI 1640 medium with 10% fetal bovine serum and 1% penicillin/streptomycin. […] Plate was then read on the BioTek Cytation 5 at 530/590 nm. […]

Regarding `CN(C)c1ccc(/C=C2\Oc3cc(O)ccc3C2=O)cc1` [Compound T151742], the “Tagg for ERO1α” value is above 60 °C and the “shift of Tagg for ERO1α” value is reported as around 6 degrees.
